For 19 molecules, IC50 results are on record in ChEMBL document CHEMBL1127162, “1,4-Diacylpiperazine-2-(S)-[(N-aminoalkyl)carboxamides] as novel, potent substance P receptor antagonists” (Bioorg Med Chem Lett, 1993).

Chain of Substance-P receptor (P25103 whole entry): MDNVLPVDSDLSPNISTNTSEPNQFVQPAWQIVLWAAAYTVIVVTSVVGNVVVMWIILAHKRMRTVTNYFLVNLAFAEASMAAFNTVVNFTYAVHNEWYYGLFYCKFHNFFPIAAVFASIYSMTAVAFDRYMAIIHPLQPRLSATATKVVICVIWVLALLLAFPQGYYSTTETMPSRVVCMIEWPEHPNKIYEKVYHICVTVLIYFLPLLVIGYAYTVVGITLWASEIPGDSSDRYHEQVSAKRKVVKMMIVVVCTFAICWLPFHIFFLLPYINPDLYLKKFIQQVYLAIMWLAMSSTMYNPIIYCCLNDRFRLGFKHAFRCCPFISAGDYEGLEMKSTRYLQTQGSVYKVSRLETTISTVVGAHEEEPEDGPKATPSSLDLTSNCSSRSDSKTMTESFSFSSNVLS

This experiment concerns the target Substance-P receptor (Homo sapiens, UniProt P25103). Put plainly: Inhibition of [125I]-Substance P binding to human NK1 receptors in CHO cells. Format: cell-based.
`CCCCCN(CCCCC)C(=O)N1CCN(C(=O)N(c2ccccc2)c2ccccc2)[C@H](CO)C1` registered an IC50 of 280 nM. For `CCCCCN(CCCCC)C(=O)N1CCN(C(=O)N(c2ccccc2)c2ccccc2)[C@H](C(=O)NCCN)C1` the value was 57 nM; for `CCCCCN(CCCCC)C(=O)N1CCN(C(=O)N(c2ccccc2)c2ccccc2)[C@H](C(=O)N(C)CCN(C)Cc2ccccc2)C1`, 290 nM; for `CCCCCN(CCCCC)C(=O)N1CCN(C(=O)N(c2ccccc2)c2ccccc2)[C@H](C(=O)NCCNC(C)=O)C1`, 140 nM. For the molecule `CCCCCN(CCCCC)C(=O)N1CCN(C(=O)N(c2ccccc2)c2ccccc2)[C@H](C(=O)N(C)CCN(C)Cc2cc(C(F)(F)F)cc(C(F)(F)F)c2)C1`, the IC50 came to 1080 nM. As for `CCCCCN(CCCCC)C(=O)N1CCN(C(=O)N(c2ccccc2)c2ccccc2)[C@H](C(=O)N(C)CCN(C)C)C1`, the IC50 turned out to be 930 nM. For `CCCCCN(CCCCC)C(=O)N1CCN(C(=O)N(c2ccccc2)c2ccccc2)[C@H](C(=O)N(C)CCN(C)Cc2ccccc2OC)C1` the value was 17 nM. For `CCCCCN(CCCCC)C(=O)N1CCN(C(=O)N(c2ccccc2)c2ccccc2)[C@H](C(=O)NCCN(C(C)C)C(C)C)C1` the value was 217 nM; for `CCCCCN(CCCCC)C(=O)N1CCN(C(=O)N(c2ccccc2)c2ccccc2)CC1`, 500 nM; for `CCCCCN(CCCCC)C(=O)N1CCN(C(=O)N(c2ccccc2)c2ccccc2)[C@@H](C(=O)O)C1`, 3000 nM.

Take `CCCCCN(CCCCC)C(=O)N1CCN(C(=O)N(c2ccccc2)c2ccccc2)[C@H](C(=O)O)C1`: the IC50 was 130 nM. For `CCCCCN(CCCCC)C(=O)N1CCN(C(=O)N(c2ccccc2)c2ccccc2)[C@H](C(=O)NCC(=O)O)C1` the value was 597 nM. For `CCCCCN(CCCCC)C(=O)N1CCN(C(=O)N(c2ccccc2)c2ccccc2)[C@H](C(=O)NCCCN(CC)CC)C1` the value was 41 nM. In turn, `CCCCCN(CCCCC)C(=O)N1CCN(C(=O)N(c2ccccc2)c2ccccc2)[C@H](C(=O)NCCN(C)C)C1` yielded a concentration for half-maximal inhibition (IC50) of 55 nM. This IC50 and that of the molecule before are within 1.5-fold of each other. For `CCCCCN(CCCCC)C(=O)N1CCN(C(=O)N(c2ccccc2)c2ccccc2)[C@H](C(=O)NCCNCc2ccccc2OC)C1` the value was 9 nM; for `CCCCCN(CCCCC)C(=O)N1CCN(C(=O)N(c2ccccc2)c2ccccc2)[C@H](C(=O)NCCN(CC)CC)C1`, 11 nM; for `CCCCCN(CCCCC)C(=O)N1CCN(C(=O)N(c2ccccc2)c2ccccc2)[C@H](C(=O)N(C)CCN(C)Cc2cc(C)cc(C)c2)C1`, 200 nM. For `CCCCCN(CCCCC)C(=O)N1CCN(C(=O)N(c2ccccc2)c2ccccc2)[C@H](C(=O)NCCOC)C1` the value was 267 nM; for `CCCCCN(CCCCC)C(=O)N1CCN(C(=O)N(c2ccccc2)c2ccccc2)[C@H](C(=O)NCCN(C)Cc2ccccc2OC)C1`, 9 nM.

The term IC50 denotes the point on the concentration scale where inhibition reaches its midpoint.
